# Laboratory results as given in patent US20250332173A1, “COMPOUNDS AND METHODS FOR MODULATING NUCLEIC ACID SPLICING” (REMIX THERAPEUTICS INC., priority 2021, published 2025).
# Read-outs that look alike come from different tables or passages of the source.
# Experiments:
# Type in all cases: cell-based, human
# [1] = test system: HTT mRNA; experiment: RT-qPCR splicing assay, HTT canonical junction (CJ) and alternative junction (AJ) mRNA; settings: Homo sapiens; for AC50: increase in HTT alternative junction (AJ) mRNA, read-out: HTT AJ AC50
# Summary of the method: (§1)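 24 h treatment, 37 °C/5% CO2; A673 or K562; 11-pt 3-fold series, top 10 uM final; DMSO ≤0.25%. Cell lysis with DNase I, then 1-step RT-qPCR. Housekeeping normalization: PPIA (A673), GAPDH or GUSB (K562).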
# [2] = test system: SMN2 mRNA; experiment: RT-qPCR splicing assay, SMN2 canonical junction (CJ) mRNA; settings: Homo sapiens; Table 5 panel; canonical junction qPCR; compound concentration having 50% response in CJ decrease; read-out: SMN2 IC50 (decrease in CJ mRNA levels)
# Summary of the method: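 K562/A673 cells, 11-pt 3-fold compound titration from 10 uM final, DMSO ≤0.25%, 24 h 37 °C 5% CO2; lyse (DNase I or Igepal/Tris buffer pH 7.4); RT-qPCR for CJ isoform vs housekeeping gene (GAPDH/GUSB/PPIA).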
# [3] = test system: MYB mRNA; experiment: RT-qPCR splicing assay, MYB canonical junction (CJ) and alternative junction (AJ) mRNA; settings: Homo sapiens; for AC50: increase in MYB alternative junction (AJ) mRNA, read-out: MYB AJ AC50
# Summary of the method: as §1
# [4] = decrease in HTT canonical junction (CJ) mRNA, RT-qPCR, read-out: HTT CJ IC50
# [5] = Table 5 panel, canonical junction qPCR, compound concentration having 50% response in CJ decrease, read-out: HTT IC50 (decrease in CJ mRNA levels)
# [6] = Table 5 panel, canonical junction qPCR, compound concentration having 50% response in CJ decrease, read-out: MYB IC50 (decrease in CJ mRNA levels)
# [7] = decrease in MYB canonical junction (CJ) mRNA, RT-qPCR, read-out: MYB CJ IC50
Compound,"IC50 [1, 4] [µM]","IC50 [1, 5] [µM]",IC50 [2] [µM],"IC50 [3, 6] [µM]","IC50 [3, 7] [µM]",AC50 ([1]; RT-qPCR) [µM],AC50 ([3]; RT-qPCR) [µM]
Cn1cc2cc(-n3cnc4cc(C5=CC6CCC(C5)N6)ccc4c3=O)ccc2n1 (stereo not shown) [Compound 160],> 10,> 10,> 10,> 10,> 10,> 10,> 10
CN1C2C=C(c3ccc4c(=O)n(-c5ccc6nn(C)cc6c5)cnc4c3)CC1CC2 (stereo not shown) [Compound 161],> 10,> 10,> 10,> 10,> 10,> 10,> 10
Cn1cc2cc(-n3cnc4cc(NC5CCNCC5)ccc4c3=O)ccc2n1 [Compound 162],> 10,> 10,> 10,> 10,> 10,> 10,> 10
CN1CCC(Nc2ccc3c(=O)n(-c4ccc5nn(C)cc5c4)cnc3c2)CC1 [Compound 163],> 10,> 10,> 10,1 to 10,> 10,> 10,1 to 10
Cn1cc2cc(-n3cnc4cc(C5CCNCC5)ccc4c3=O)ccc2n1 [Compound 172],> 10,> 10,> 10,> 10,> 10,> 10,> 10
Cc1cc(-c2ccc3c(=O)n(C4CCN(C)CC4)cnc3n2)cc2cn(C)nc12 [Compound 173],> 10,> 10,1 to 10,> 10,> 10,> 10,> 10
"Cc1cn2nc(-c3ccc4c(=O)n([C@H]5CCNC6(CC6)C5)ncc4c3)cc(C)c2n1 [Compound 369, 2-[(7S)-4-azaspiro[2.5]octan-7-yl]-6-{2,8-dimethylimidazo[1,2-b]pyridazin-6-yl}phthalazin-1-one]",< 0.1,< 0.1,< 0.1,< 0.1,< 0.1,< 0.1,< 0.1
Cc1cn2nc(-c3ccc4c(=O)n([C@H]5CCNC[C@H]5F)cnc4c3)cc(C)c2n1 [Compound 372],0.1 to 1,0.1 to 1,< 0.1,0.1 to 1,0.1 to 1,0.1 to 1,0.1 to 1
Cc1cc(-c2ccc3c(=O)n(C4CCNC5(COC5)C4)cnc3c2)cc2cn(C)nc12 (stereo not shown) [Compound 375],1 to 10,1 to 10,1 to 10,1 to 10,1 to 10,1 to 10,1 to 10
Cc1cc(-c2ccc3c(=O)n([C@@H]4CCNC[C@H]4F)ncc3c2)cc2cn(C)nc12 [Compound 378],1 to 10,1 to 10,0.1 to 1,1 to 10,1 to 10,1 to 10,1 to 10
Cc1cn2nc(-c3ccc4c(=O)n([C@@H]5CCNC[C@H]5F)ncc4c3)cc(C)c2n1 [Compound 379],0.1 to 1,0.1 to 1,0.1 to 1,0.1 to 1,0.1 to 1,0.1 to 1,0.1 to 1

# Continued, in another order:
"IC50 [1, 4] [µM]","IC50 [1, 5] [µM]",IC50 [2] [µM],"IC50 [3, 6] [µM]","IC50 [3, 7] [µM]",Compound,AC50 ([1]; RT-qPCR) [µM],AC50 ([3]; RT-qPCR) [µM]
1 to 10,1 to 10,< 0.1,0.1 to 1,0.1 to 1,"Cc1cn2nc(-c3ccc4c(=O)n(C5CCCNC5)ccc4c3)cc(C)c2n1 (stereo in doubt) [Compound 410, 6-{2,8-dimethylimidazo[1,2-b]pyridazin-6-yl}-2-[(3S)-piperidin-3-yl]isoquinolin-1-one]",1 to 10,0.1 to 1
1 to 10,1 to 10,0.1 to 1,1 to 10,1 to 10,"Cc1cn2nc(-c3ccc4c(=O)n(C5CCCNC5)ccc4c3)cc(C)c2n1 (stereo in doubt) [Compound 411, 6-{2,8-dimethylimidazo[1,2-b]pyridazin-6-yl}-2-[(3R)-piperidin-3-yl]isoquinolin-1-one]",1 to 10,1 to 10
0.1 to 1,0.1 to 1,0.1 to 1,0.1 to 1,0.1 to 1,"Cc1cn2cc(-c3cc(F)c4c(=O)n(C5CCOC5)cnc4c3)cc(C#N)c2n1 (stereo in doubt) [Compound 499, (R)-6-(5-fluoro-4-oxo-3-(tetrahydrofuran-3-yl)-3,4-dihydroquinazolin-7-yl)-2-methylimidazo[1,2-a]pyridine-8-carbonitrile]",0.1 to 1,0.1 to 1
0.1 to 1,0.1 to 1,0.1 to 1,0.1 to 1,0.1 to 1,"Cc1cn2cc(-c3cc(F)c4c(=O)n(C5CCOC5)cnc4c3)cc(C#N)c2n1 (stereo in doubt) [Compound 500, (S)-6-(5-fluoro-4-oxo-3-(tetrahydrofuran-3-yl)-3,4-dihydroquinazolin-7-yl)-2-methylimidazo[1,2-a]pyridine-8-carbonitrile]",0.1 to 1,0.1 to 1
0.1 to 1,0.1 to 1,< 0.1,0.1 to 1,0.1 to 1,Cc1cc(-c2ccc3c(=O)n(C4CCNCC4)cnc3c2)cc2cn(C)nc12 [Compound 174],0.1 to 1,0.1 to 1
> 10,> 10,> 10,> 10,> 10,"Cc1cn2cc(-c3cc(N)c4c(=O)n(C5CCNCC5)cnc4c3)cc(C#N)c2n1 [Compound 364, 6-[5-amino-4-oxo-3-(piperidin-4-yl)quinazolin-7-yl]-2-methylimidazo[1,2-a]pyridine-8-carbonitrile]",> 10,> 10
> 10,> 10,0.1 to 1,1 to 10,1 to 10,"Cn1cc2c(n1)CCN(c1cc(F)c3c(=O)n(C4CCNCC4)cnc3c1)C2 [Compound 365, 5-fluoro-7-(2-methyl-2,4,6,7-tetrahydro-5H-pyrazolo[4,3-c]pyridin-5-yl)-3-(piperidin-4-yl)quinazolin-4(3H)-one]",> 10,1 to 10
1 to 10,1 to 10,1 to 10,1 to 10,1 to 10,"Cc1cn2cc(-c3cc(F)c4c(=O)n(C5CCOC5)cnc4c3)cc(C#N)c2n1 (stereo not shown) [Compound 366, 6-[5-fluoro-4-oxo-3-(oxolan-3-yl)quinazolin-7-yl]-2-methylimidazo[1,2-a]pyridine-8-carbonitrile]",1 to 10,1 to 10
0.1 to 1,0.1 to 1,0.1 to 1,0.1 to 1,0.1 to 1,"Cc1cn2cc(-c3cc(F)c4c(=O)n(C5CCOCC5)cnc4c3)cc(C#N)c2n1 [Compound 367, 6-[5-fluoro-3-(oxan-4-yl)-4-oxoquinazolin-7-yl]-2-methylimidazo[1,2-a]pyridine-8-carbonitrile]",0.1 to 1,0.1 to 1
< 0.1,< 0.1,< 0.1,< 0.1,< 0.1,Cc1cn2cc(-c3cc(F)c4c(=O)n(C5CCNCC5)ccc4c3)cc(F)c2n1 [Compound 370],< 0.1,< 0.1
< 0.1,< 0.1,< 0.1,< 0.1,< 0.1,"Cc1cn2nc(-c3cc(F)c4c(=O)n(C5CCNC6(CC6)C5)ccc4c3)cc(C)c2n1 (stereo not shown) [Compound 380, 6-(2,8-dimethylimidazo[1,2-b]pyridazin-6-yl)-8-fluoro-2-(4-azaspiro[2.5]octan-7-yl)isoquinolin-1(2H)-one]",< 0.1,< 0.1
0.1 to 1,< 0.1,< 0.1,< 0.1,< 0.1,"Cc1cn2nc(-c3ccc4c(=O)n(C5CCNCC5)cc(C)c4c3)cc(C)c2n1 [Compound 381, 6-{2,8-dimethylimidazo[1,2-b]pyridazin-6-yl}-4-methyl-2-(piperidin-4-yl)isoquinolin-1-one]",< 0.1,< 0.1
1 to 10,0.1 to 1,< 0.1,< 0.1,< 0.1,"Cc1cn2cc(-c3cc(F)c4c(=O)n(C5CCNCC5)ccc4c3)cc(C#N)c2n1 [Compound 383, 6-[8-fluoro-1-oxo-2-(piperidin-4-yl)isoquinolin-6-yl]-2-methylimidazo[1,2-a]pyridine-8-carbonitrile]",0.1 to 1,< 0.1
< 0.1,< 0.1,< 0.1,< 0.1,< 0.1,Cc1cn2nc(-c3ccc4c(=O)n(C5CCNC6(CC6)C5)ccc4c3)cc(C)c2n1 (stereo not shown) [Compound 384],< 0.1,< 0.1
